According to PMC10747430, “^99mTc-Labeled Cyclic Peptide Targeting PD-L1 as a Novel Nuclear Imaging Probe” (Pharmaceutics, 2023):

Tests used:
[1] = test system: lesions and adenopathies with high metabolic activity; assay: [18F]FDG PET/CT imaging in a patient; type: in vivo, human; design: key: Lesions and adenopathies positive for high metabolic activity were detected with [^18F]FDG (✓)
Excerpt: A person (weight 60 kg; height 168 cm) diagnosed with advanced plantar malignant melanoma was enrolled in this study (Ethics Committee: Protocol No. 2023-MN02). The trial was approved based on the microdose concept and proof-of-concept studies. In addition, the ethical standards of the INCan Hospital based on the Declaration of Helsinki regarding human experimentation and the GMP certificate granted to ININ by the Mexican Ministry of Health were taken into account. The patient signed an informed consent form after receiving detailed information about the purpose of the study, which could help decide on treatment and monitor disease progression.
Table 2 provides a detailed analysis of the molecular imaging findings obtained in the [^99mTc]Tc-iPD-L1 SPECT/CT and [^18F]FDG/PET studies.

Stability in human serum = type: in vitro ADME; details: human serum (diluted 5x), 37 °C, n = 3
Description: (§1) The stability of [^99mTc]Tc-iPD-L1 and [^99mTc]Tc-WL12 was evaluated by diluting the samples in human serum (5x). The radiopharmaceuticals (n = 3) were heated at 37 °C and analyzed at 0.5, 3, and 24 h for radiochemical purity by size-exclusion radio-HPLC (ProteinPak 300SW, Waters Corporation, Milford, CT, USA).
(§2) The radioactivity from [^99mTc]Tc-iPD-L1 bound to serum proteins was 1.3 ± 0.8% at 30 min, 3.2 ± 1.3% at 3 h, and 7.6 ± 1.9% at 24 h. High radiochemical stability (>90% at 24 h) was also observed. In the case of [^99mTc]Tc-WL12, protein binding was 1.0 ± 0.4% at 30 min, 3.3 ± 0.9% at 3 h, and 6.0 ± 1.3% at 24 h, with a radiochemical purity of >90% at 24 h. Therefore, there was no significant difference […] in protein binding and serum stability between the radiotracers.

Serum protein binding = type: in vitro ADME; details: human serum (diluted 5x), 37 °C, size-exclusion radio-HPLC, n = 3
Description: as §1, §2

[2] = target: T1, human recombinant PD-L1 protein (Homo sapiens, UniProt Q9NZQ7); assay: Radio-SDS-PAGE molecular recognition by PD-L1 protein; type: binding; details: radiopeptide (1 mg/mL) incubated with PD-L1 (200 µg/mL) 30 min at 37 °C; 15% SDS-PAGE, radio-TLC scan
T1 construct: purchased FineTest P6857
Description: SDS-PAGE gel electrophoresis was performed. Radioactivity distribution was determined using a radio-TLC scanner (Mini-Gita, 60–150 keV, BGO-Crystal, window 25 × 2 mm, thickness 5 mm, resolution optimized for Tc-99m; RayTest, Munich, Germany) to detect [^99mTc]Tc-iPD-L1 and [^99mTc]Tc-WL12 binding to PD-L1 protein.
Briefly, ^99mTc-labeled WL12 and iPD-L1 solutions (100 µL) (1 mg/mL peptide) were incubated with human recombinant PD-L1 protein (100 µL) (200 µg/mL; FineTest; Cat: P6857) (radiopeptide-PD-L1 interaction) or human integrin αVβ3 protein (100 µL) (negative control; 200 µg/mL) (Chemicom, Merck; Burlington, MA, USA) (radiopeptide-integrin interaction) for 30 min at 37 °C, after which the samples were diluted with Laemmli sample buffer (containing 10% SDS, Tris-Cl 125 mM, pH = 6.8, 12.5% glycerol and 0.005% bromophenol blue after dye) to give final protein concentrations of 25 µg/mL. […] Finally, the radioactivity distribution on the gels was scanned using a radio-TLC detector to determine the percentage of [^99mTc]Tc-iPD-L1 or [^99mTc]Tc-WL12 radioactivity associated with proteins.
In vitro-specific recognition of [^99mTc]Tc-iPD-L1 and [^99mTc]Tc-WL12 by the PD-L1 protein was performed using a combination of radio-TLC and SDS-PAGE (radio-SDS-PAGE). […] Therefore, the radioactivity associated with free peptides is in the front of the gel plate (around 60–70 mm). […]

[3] = test system: HCC827 lung cancer tumors; assay: Biodistribution in mice bearing HCC827 tumors; type: in vivo, mouse; details: mice bearing HCC827 tumors
Description: All animal procedures were performed following the Institutional Animal Care and Use Committee requirements under an approved protocol (No. 09-2018-2022) and the Ethical Regulations for the Handling of Laboratory Animals (NOM-062-ZOO-1999). Male Nu/Nu (CINVESTAV, I.PN., Mexico City, Mexico) mice, 6–8 weeks of age, were maintained in an aseptic barrier environment. Mice were inoculated by subcutaneous injection of 1 × 10^6 HCC827 cells/0.1 mL PBS into the upper back. Injection sites were monitored periodically for tumor progression. On day ten after tumor cell inoculation, animals were injected with 18.5 MBq (50 µL) of [^99mTc]Tc-iPD-L1 or 18.5 MBq (50 µL) of [^99mTc]Tc-WL12 by tail vein injection. The animals were sacrificed at 1, 3, and 24 h (n = 3). Kidneys, lungs, heart, liver, spleen, pancreas, small intestine, stomach, muscle, and blood and tumor samples were dissected. Radioactivity was determined in a sodium iodide detector. The results were stated as % injected dose/g.
After 24 h, the activity in tumors was 3.21 ± 0.45 %ID/g ([^99mTc]Tc-WL12) and 5.65 ± 0.98 %ID/g ([^99mTc]Tc-iPD-L1). […] This behavior is related to the higher lipophilicity of [^99mTc]Tc-iPD-L1 compared to [^99mTc]Tc-WL12.

T1 sequence (Q9NZQ7 19-290): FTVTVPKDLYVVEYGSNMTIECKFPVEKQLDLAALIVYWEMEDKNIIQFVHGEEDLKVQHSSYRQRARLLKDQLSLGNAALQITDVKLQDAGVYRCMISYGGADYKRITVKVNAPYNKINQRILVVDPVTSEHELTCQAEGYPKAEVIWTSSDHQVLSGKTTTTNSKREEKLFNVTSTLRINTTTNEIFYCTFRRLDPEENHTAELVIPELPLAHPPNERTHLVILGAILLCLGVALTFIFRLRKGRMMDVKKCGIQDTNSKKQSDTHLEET

| SMILES | [18F]FDG Uptake ([1]; patient with plantar malignant melanoma, PET/CT, Mediastinal adenopathies level 4R, 8 and 10L up to 12 mm) | [18F]FDG Uptake ([1]; same patient, Adenopathies in the entire intramuscular tract of the left lower extremity up to 14 mm) | [18F]FDG Uptake ([1]; same patient, Adenopathies of the common, internal, external, and obturator iliac chains up to 26 mm) | [18F]FDG Uptake ([1]; same patient, Left femoral adenopathies of 12 mm) | [18F]FDG Uptake ([1]; same patient, Left inguinal adenopathies forming clusters of 29 mm) | [18F]FDG Uptake ([1]; same patient, Left popliteal hollow adenopathies up to 20 mm) | [18F]FDG Uptake ([1]; same patient, Left retrocrural adenopathy of 9 mm) | [18F]FDG Uptake ([1]; same patient, Liver, poorly defined hypodense images, the largest in segment 7) | [18F]FDG Uptake ([1]; same patient, Retroperitoneal paraaortic and intercavoaortic adenopathies of 14 mm) | [18F]FDG Uptake ([1]; same patient, exophytic lesion in the heel region of the left foot, 67 × 35 mm) | stability in human serum (Stability in human serum; 30 min, 3 h and 24 h, size-exclusion radio-HPLC) | remaining at 24 h (Stability in human serum; 24 h, size-exclusion radio-HPLC (ProteinPak 300SW), read-out: radiochemical stability / radiochemical purity in human serum at 24 h) [%] | radioactivity bound to serum proteins at 30 min (Serum protein binding; 30 min) [%] | radioactivity bound to serum proteins at 3 h (Serum protein binding; 3 h) [%] | radioactivity bound to serum proteins at 24 h (Serum protein binding; 24 h) [%] | radioactivity detected at the distance associated with the PD-L1 protein [2] [%] | activity in blood, liver, and kidney compared to [99mTc]Tc-WL12 [3] |
| --- | --- | --- | --- | --- | --- | --- | --- | --- | --- | --- | --- | --- | --- | --- | --- | --- | --- |
| OC[C@H]1OC(O)[C@H]([18F])[C@@H](O)[C@@H]1O (some centres unmarked) [[^18F]FDG] | ✓ | ✓ | ✓ | ✓ | ✓ | ✓ | ✓ | ✓ | ✓ | ✓ | – | – | – | – | – | – | – |
| CC(C)C[C@@H]1NC(=O)[C@H](CC(C)C)NC(=O)[C@H](Cc2c[nH]c3ccccc23)NC(=O)[C@H](CO)NC(=O)[C@H](Cc2c[nH]c3ccccc23)NC(=O)[C@@H]2CCCN2C(=O)[C@H](CC(C)C)NC(=O)[C@H](Cc2c[nH]cn2)NC(=O)[C@@H]2CCCN2C(=O)[C@H](CC(N)=O)NC(=O)[C@H](C)NC(=O)[C@H](Cc2ccc(O)cc2)NC(=O)[C@H](CS)NC(=O)[C@H](CCCCNC(=O)c2ccc(NN)nc2)NC1=O [[^99mTc]Tc-iPD-L1, metal not drawn] | – | – | – | – | – | – | – | – | – | – | remained stable | > 90 | 1.3 ± 0.8 | 3.2 ± 1.3 | 7.6 ± 1.9 | 30 | higher activity in blood, liver, and kidney |
